From ChEMBL document CHEMBL4818998, “Melatonin derivatives combat with inflammation-related cancer by targeting the Main Culprit STAT3” (Eur J Med Chem, 2021)
Calls of active or inactive are those of the source. No cut-off for these calls is given here.

Legend:
HCT-116 [1] = test: Induction of ROS generation in human HCT-116 cells at 2.5 to 15 uM measured after 36 hrs by DCFH-DA staining based fluorescence microscopic analysis; type: functional, cell-based; settings: dose 2.5-15 µM
HCT-116 [2] = test: Antimetastatic activity against human HCT-116 cells assessed as inhibition of cell invasion measured after 36 hrs by transwell assay; type: functional, cell-based; settings: dose 2.5-15 µM
MGC-803 [3] = test: Antiproliferative activity against human MGC-803 cells assessed as inhibition of cell proliferation measured after 72 hrs by MTT assay; type: functional, cell-based; settings: MGC-803, 72 h
HCT-116 [4] = test: Downregulation of STAT3 expression in human HCT-116 cells at 10 uM measured after 3 hrs by Hoechst/fluorochrome-conjugated antibody staining based confocal laser microscopy; type: functional, cell-based
[5] = AUC (0 to t) in Sprague-Dawley rat at 100 mg/kg, ig measured for 24 hrs by LC-MS analysis; type: ADME, organism-based; parameters: time 24 hrs, dose 100 mg/kg; settings: in vivo, po
HCT-116 [6] = test: Induction of apoptosis in human HCT-116 cells assessed as late apoptotic cells at 5 uM measured after 48 hrs by Annexin V-FITC/PI staining based flow cytometry (reference value: 1.42%); type: functional
HCT-116 [7] = test: Downregulation of STAT3 protein expression in human HCT-116 cells at 2.5 to 10 uM measured after 48 hrs by western blot assay; type: functional, cell-based; settings: dose 2.5-10 µM
HCT-116 [8] = test: Induction of apoptosis in human HCT-116 cells assessed as necrotic cells at 20 uM measured after 48 hrs by Annexin V-FITC/PI staining based flow cytometry (reference value: 1.5%); type: functional
HCT-116 [9] = test: Induction of apoptosis in human HCT-116 cells assessed as […] of cleaved caspase-3 expression at 2.5 to 10 uM measured after 48 hrs by western blot assay; type: functional, cell-based; settings: dose 2.5-10 µM
HGC-27 = test: Antiproliferative activity against human HGC-27 cells assessed as inhibition of cell proliferation measured after 72 hrs by MTT assay; type: functional, cell-based; settings: HGC-27, 72 h
RAW264.7 = test: Anti-inflammatory activity against mouse RAW264.7 cells assessed as decrease in LPS-induced TNF-alpha secretion measured after 24 hrs by ELISA; type: functional, cell-based; settings: dose 5-20 µM
HCT-116 [10] = test: Induction of apoptosis in human HCT-116 cells assessed as increase in apoptotic cells with twinkling cell nuclei at 1.25 to 10 uM measured after 48 hrs by Hoechst 33342 staining based light blue fluorescence analysis; type: functional; settings: dose 1.25-10 µM
HCT-116 [11] = test: Induction of apoptosis in human HCT-116 cells assessed as early apoptotic cells at 20 uM measured after 48 hrs by Annexin V-FITC/PI staining based flow cytometry (reference value: 2.14%); type: functional
HCT-116 [12] = test: Induction of apoptosis in human HCT-116 cells assessed as upregulation of Bax expression at 2.5 to 10 uM measured after 48 hrs by western blot assay; type: functional, cell-based; settings: dose 2.5-10 µM
HCT-116 [13] = test: Induction of apoptosis in human HCT-116 cells assessed as late apoptotic cells at 2.5 uM measured after 48 hrs by Annexin V-FITC/PI staining based flow cytometry assay (reference value: 1.42%); type: functional
MGC-803 [14] = test: Antimetastatic activity against human MGC-803 cells assessed as inhibition of cell migration measured after 24 hrs by transwell assay; type: functional, cell-based; settings: dose 2.5-15 µM
[15] = Observed apparent oral clearance in Sprague-Dawley rat at 100 mg/kg measured for 24 hrs by LC-MS analysis; type: ADME, organism-based; settings: in vivo
HCT-116 [16] = test: Antiproliferative activity against human HCT-116 cells assessed as decrease in cell population at S-phase at 1.25 to 10 uM measured after 24 hrs by EdU incorporation based fluorescence microscopic analysis; type: functional; settings: dose 1.25-10 µM
HCT-116 [17] = test: Induction of apoptosis in human HCT-116 cells assessed as necrotic cells at 2.5 uM measured after 48 hrs by Annexin V-FITC/PI staining based Flowcytometry assay (reference value: 1.5%); type: functional
HCT-116 [18] = test: Inhibition of clonogenicity in human HCT-116 cells assessed as reduction in colony formation measured after 9 days by crystal violet staining based analysis; type: functional, cell-based; settings: dose 1.25-10 µM, time 9.0 day
[19] = Tmax in Sprague-Dawley rat at 100 mg/kg, ig measured for 24 hrs by LC-MS analysis; type: ADME, organism-based; settings: in vivo, po
HCT-116 [20] = test: Induction of apoptosis in human HCT-116 cells assessed as viable cells at 10 uM measured after 48 hrs by Annexin V-FITC/PI staining based flow cytometry (reference value: 94.9%); type: functional; settings: read-out: Activity
AGS = test: Antiproliferative activity against human AGS cells assessed as inhibition of cell proliferation measured after 72 hrs by MTT assay; type: functional, cell-based
MGC-803 [21] = test: Antimetastatic activity against human MGC-803 cells assessed as inhibition of cell invasion measured after 24 hrs by transwell assay; type: functional, cell-based; settings: dose 2.5-15 µM
HCT-116 [22] = test: Induction of apoptosis in human HCT-116 cells assessed as viable cells at 2.5 uM measured after 48 hrs by Annexin V-FITC/PI staining based flow cytometry assay (reference value: 94.9%); type: functional; settings: read-out: Activity
HCT-116 [23] = test: Induction of apoptosis in human HCT-116 cells assessed as formation of apoptotic bodies at 2.5 to 15 uM measured after 48 hrs by Giemsa staining method; type: functional, cell-based; settings: dose 2.5-15 µM
[24] = Half life in Sprague-Dawley rat at 100 mg/kg, ig measured for 24 hrs by LC-MS analysis; type: ADME, organism-based; settings: in vivo, po
[25] = target: Signal transducer and activator of transcription 3 (Homo sapiens) (UniProt P40763); test: Inhibition of STAT3 in human HCT-116 cells assessed as decrease in STAT3 phosphorylation at 2.5 to 10 uM measured after 48 hrs by western blot assay; type: cell-based; settings: dose 2.5-10 µM
Sequence of Signal transducer and activator of transcription 3 (Homo sapiens) (P40763 whole entry): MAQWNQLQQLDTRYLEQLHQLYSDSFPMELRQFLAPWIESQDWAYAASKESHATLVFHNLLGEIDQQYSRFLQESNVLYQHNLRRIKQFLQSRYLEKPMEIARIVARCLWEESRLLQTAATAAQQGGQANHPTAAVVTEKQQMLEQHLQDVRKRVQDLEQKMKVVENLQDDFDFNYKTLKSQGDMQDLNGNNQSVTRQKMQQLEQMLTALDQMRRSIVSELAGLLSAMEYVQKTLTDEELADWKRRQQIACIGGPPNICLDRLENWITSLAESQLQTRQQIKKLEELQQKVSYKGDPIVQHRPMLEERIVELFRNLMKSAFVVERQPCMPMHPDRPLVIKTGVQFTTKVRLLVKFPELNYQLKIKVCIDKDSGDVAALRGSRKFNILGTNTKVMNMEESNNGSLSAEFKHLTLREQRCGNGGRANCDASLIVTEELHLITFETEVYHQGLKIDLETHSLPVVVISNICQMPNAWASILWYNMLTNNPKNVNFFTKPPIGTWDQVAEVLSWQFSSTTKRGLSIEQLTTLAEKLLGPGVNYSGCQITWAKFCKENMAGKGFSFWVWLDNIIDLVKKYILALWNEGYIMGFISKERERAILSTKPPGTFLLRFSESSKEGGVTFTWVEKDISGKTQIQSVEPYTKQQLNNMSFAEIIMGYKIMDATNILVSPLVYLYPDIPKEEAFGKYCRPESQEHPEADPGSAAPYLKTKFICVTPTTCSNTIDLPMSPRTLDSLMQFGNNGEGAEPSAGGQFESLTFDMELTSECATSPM

HCT-116 [26] = test: Induction of apoptosis in human HCT-116 cells assessed as viable cells at 20 uM measured after 48 hrs by Annexin V-FITC/PI staining based flow cytometry (reference value: 94.9%); type: functional; settings: read-out: Activity
HCT-116 [27] = test: Induction of apoptosis in human HCT-116 cells assessed as early apoptotic cells at 5 uM measured after 48 hrs by Annexin V-FITC/PI staining based flow cytometry (reference value: 2.14%); type: functional
MGC-803 [28] = test: Inhibition of clonogenicity in human MGC-803 cells assessed as reduction in colony formation measured after 6 days by crystal violet staining based analysis; type: functional, cell-based; settings: dose 2-16 µM, time 6.0 day
MGC-803 [29] = test: Downregulation of STAT3 expression in human MGC-803 cells at 10 uM measured after 3 hrs by Hoechst/fluorochrome-conjugated antibody staining based confocal laser microscopy; type: functional, cell-based
HepG2 = test: Antiproliferative activity against human HepG2 cells assessed as inhibition of cell proliferation measured after 72 hrs by MTT assay; type: functional, cell-based; settings: HepG2, 72 h
HCT-116 [30] = test: Antiproliferative activity against human HCT-116 cells assessed as inhibition of cell proliferation measured after 72 hrs by MTT assay; type: functional, cell-based; settings: HCT-116, 72 h
MGC-803 [31] = test: Induction of cell cycle arrest in human MGC-803 cells at 2.5 to 20 uM measured after 48 hrs by propidium iodide staining based flow cytometry analysis; type: functional; settings: dose 2.5-20 µM

Question: What does the source list for `Cc1c(Cl)cccc1Nc1ccccc1C(=O)NCCc1c[nH]c2ccccc12`?
Answer: Activity (HCT-116 [1]): Active; Activity (HCT-116 [2]): Dose-Dependent Effect; IC50 (MGC-803 [3]): 9.96 µM; inhibition (HCT-116 [4]): Active; AUC(0-t) at 24 h [5]: 1670 ng·h/mL; Activity (HCT-116 [6]): 3.94%; inhibition (HCT-116 [7]): Active; Activity (HCT-116 [8]): 2.62%; Activity (HCT-116 [9]): Active; IC50 (HGC-27): 15.5 µM; Activity (RAW264.7): Dose-Dependent Effect; Activity (HCT-116 [10]): Active; Activity (HCT-116 [11]): 42.5%; Activity (HCT-116 [12]): Active; Activity (HCT-116 [13]): 3.12%; Activity (MGC-803 [14]): Dose-Dependent Effect; CL/F [15]: 51.75 (mg/kg)/(microg/ml)/hr; Activity (HCT-116 [16]): Active; Activity (HCT-116 [17]): 2.07%; inhibition (HCT-116 [18]): Dose-Dependent Effect; Tmax [19]: 1 h; viability at 10 µM (HCT-116 [20]): 58.5%; IC50 (AGS): 9.12 µM; Activity (MGC-803 [21]): Dose-Dependent Effect; viability at 2.5 µM (HCT-116 [22]): 91.3%; Activity (HCT-116 [23]): Active; half-life [24]: 7.58 h; inhibition [25]: Active; viability at 20 µM (HCT-116 [26]): 45.9%; Activity (HCT-116 [27]): 5.44%; inhibition (MGC-803 [28]): Dose-Dependent Effect; inhibition (MGC-803 [29]): Active; IC50 (HepG2): 7.37 µM; IC50 (HCT-116 [30]): 8.42 µM; Activity (MGC-803 [31]): inactive
